PubChem BioAssay AID1963963 (Molecular Pharmacology Branch, DTP, NCI, 2024)

Tested on: 958667-338-R-J2-PDC tumor spheroids viability
Assay: Anticancer human tumor 958667-338-R-J2-PDC patient-derived colon adenocarcinoma cell line growth inhibition [PI3K]
Settings: spheroids with HUVEC and MSC; for viability, T/C: stronger effect = lower value
Method in brief: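 Stroma-containing spheroids: tumor line, pooled-donor HUVEC, hMSC. Treatments: targeted agents with PI3K inhibitors. Dosing: clinically relevant, half-log spacing, 10 microM ceiling without known Cmax. Read-out: cell viability.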

[1] = curve of first compound, second compound 0.00316 µM
[2] = curve of first compound, second compound 0.01 µM
[3] = curve of first compound, second compound 0.0316 µM
[4] = curve of first compound, second compound 0.1 µM
[5] = curve of first compound, second compound 0.316 µM
[6] = curve of first compound, second compound 1 µM
[7] = second compound 0.00316 µM, first compound 0.0316 µM
[8] = second compound 0.00316 µM, first compound 0.1 µM
[9] = second compound 0.00316 µM, first compound 0.316 µM
[10] = second compound 0.00316 µM, first compound 1 µM
[11] = second compound 0.00316 µM, first compound 3.16 µM
[12] = second compound 0.00316 µM, first compound 10 µM
[13] = second compound 0.01 µM, first compound 0.0316 µM
[14] = second compound 0.01 µM, first compound 0.1 µM
[15] = second compound 0.01 µM, first compound 0.316 µM
[16] = second compound 0.01 µM, first compound 1 µM
[17] = second compound 0.01 µM, first compound 3.16 µM
[18] = second compound 0.01 µM, first compound 10 µM
[19] = second compound 0.0316 µM, first compound 0.0316 µM
[20] = second compound 0.0316 µM, first compound 0.1 µM
[21] = second compound 0.0316 µM, first compound 0.316 µM
[22] = second compound 0.0316 µM, first compound 1 µM
[23] = second compound 0.0316 µM, first compound 3.16 µM
[24] = second compound 0.0316 µM, first compound 10 µM
[25] = second compound 0.1 µM, first compound 0.0316 µM
[26] = second compound 0.1 µM, first compound 0.1 µM
[27] = second compound 0.1 µM, first compound 0.316 µM
[28] = second compound 0.1 µM, first compound 1 µM
[29] = second compound 0.1 µM, first compound 3.16 µM
[30] = second compound 0.1 µM, first compound 10 µM
[31] = second compound 0.316 µM, first compound 0.0316 µM
[32] = second compound 0.316 µM, first compound 0.1 µM
[33] = second compound 0.316 µM, first compound 0.316 µM
[34] = second compound 0.316 µM, first compound 1 µM
[35] = second compound 0.316 µM, first compound 3.16 µM
[36] = second compound 0.316 µM, first compound 10 µM
[37] = second compound 1 µM, first compound 0.0316 µM
[38] = second compound 1 µM, first compound 0.1 µM
[39] = second compound 1 µM, first compound 0.316 µM
[40] = second compound 1 µM, first compound 1 µM
[41] = second compound 1 µM, first compound 3.16 µM
[42] = second compound 1 µM, first compound 10 µM
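Further: spheroids exposed to compounds for seven days before readout.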

**Q.** `Cn1ncc(Cl)c1-c1cc(C(=O)NC(CN)Cc2cccc(F)c2)sc1Cl` (stereo unspecified) + CC(Nc1ccc2c(c1)OCCn1cc(N3C(=O)OCC3C(F)F)nc1-2)C(N)=O was tested. Which IC50 [1] did it give?
**A.** 3.02 µM

**Q.** And the IC50 [2]?
**A.** 2.35 µM

**Q.** What about the IC50 [3] of the same compound?
**A.** 2.71 µM

**Q.** And the IC50 [4]?
**A.** 1.95 µM

**Q.** And the IC50 [5]?
**A.** 0.944 µM

**Q.** And the IC50 [6]?
**A.** < 0.0316 µM

**Q.** And the viability, T/C [7]?
**A.** 98.9%

**Q.** And the viability, T/C [8]?
**A.** 94.4%

**Q.** What about the viability, T/C [9] of the same compound?
**A.** 96.2%

**Q.** And the viability, T/C [10]?
**A.** 76.3%

**Q.** And the viability, T/C [11]?
**A.** 49.4%

**Q.** What about the viability, T/C [12] of the same compound?
**A.** 41.6%

**Q.** What about the viability, T/C [13] of the same compound?
**A.** 109%

**Q.** What about the viability, T/C [14] of the same compound?
**A.** 104%

**Q.** What about the viability, T/C [15] of the same compound?
**A.** 104%

**Q.** What about the viability, T/C [16] of the same compound?
**A.** 75%

**Q.** What about the viability, T/C [17] of the same compound?
**A.** 41.8%

**Q.** What about the viability, T/C [18] of the same compound?
**A.** 27.7%

**Q.** And the viability, T/C [19]?
**A.** 106%

**Q.** What about the viability, T/C [20] of the same compound?
**A.** 91.2%

**Q.** What about the viability, T/C [21] of the same compound?
**A.** 94.2%

**Q.** What about the viability, T/C [22] of the same compound?
**A.** 85.8%

**Q.** And the viability, T/C [23]?
**A.** 44.3%

**Q.** And the viability, T/C [24]?
**A.** 29.5%

**Q.** And the viability, T/C [25]?
**A.** 95.8%

**Q.** What about the viability, T/C [26] of the same compound?
**A.** 89%

**Q.** What about the viability, T/C [27] of the same compound?
**A.** 79.4%

**Q.** And the viability, T/C [28]?
**A.** 65.7%

**Q.** And the viability, T/C [29]?
**A.** 38.4%

**Q.** What about the viability, T/C [30] of the same compound?
**A.** 25.6%

**Q.** What about the viability, T/C [31] of the same compound?
**A.** 54.1%

**Q.** And the viability, T/C [32]?
**A.** 79.6%

**Q.** And the viability, T/C [33]?
**A.** 63%

**Q.** What about the viability, T/C [34] of the same compound?
**A.** 48.5%

**Q.** What about the viability, T/C [35] of the same compound?
**A.** 31.8%

**Q.** And the viability, T/C [36]?
**A.** 24.9%

**Q.** And the viability, T/C [37]?
**A.** 46.1%

**Q.** What about the viability, T/C [38] of the same compound?
**A.** 54.1%

**Q.** What about the viability, T/C [39] of the same compound?
**A.** 45.1%

**Q.** What about the viability, T/C [40] of the same compound?
**A.** 46%

**Q.** And the viability, T/C [41]?
**A.** 31.2%

**Q.** What about the viability, T/C [42] of the same compound?
**A.** 20.8%

**Q.** What does the source list for `CCCS(=O)(=O)Nc1ccc(F)c(C(=O)c2c[nH]c3ncc(-c4ccc(Cl)cc4)cc23)c1F` + CC(Nc1ccc2c(c1)OCCn1cc(N3C(=O)OCC3C(F)F)nc1-2)C(N)=O?
**A.** IC50 [1]: 6.1 µM; IC50 [2]: 6.01 µM; IC50 [3]: 5 µM; IC50 [4]: 4.77 µM; IC50 [5]: 4.81 µM; IC50 [6]: 4.04 µM; viability, T/C [7]: 99%; viability, T/C [8]: 105%; viability, T/C [9]: 106%; viability, T/C [10]: 106%; viability, T/C [11]: 112%; viability, T/C [12]: 8.08%; viability, T/C [13]: 105%; viability, T/C [14]: 111%; viability, T/C [15]: 83.7%; viability, T/C [16]: 99.9%; viability, T/C [17]: 130%; viability, T/C [18]: 5.91%; viability, T/C [19]: 104%; viability, T/C [20]: 109%; viability, T/C [21]: 104%; viability, T/C [22]: 106%; viability, T/C [23]: 76.7%; viability, T/C [24]: 9.56%; viability, T/C [25]: 78.3%; viability, T/C [26]: 74.9%; viability, T/C [27]: 72.3%; viability, T/C [28]: 67.5%; viability, T/C [29]: 81.1%; viability, T/C [30]: 5.14%; viability, T/C [31]: 72.5%; viability, T/C [32]: 65.5%; viability, T/C [33]: 61.5%; viability, T/C [34]: 79.1%; viability, T/C [35]: 79.7%; viability, T/C [36]: 12.3%; viability, T/C [37]: 57.8%; viability, T/C [38]: 61%; viability, T/C [39]: 58%; viability, T/C [40]: 68.9%; viability, T/C [41]: 60.5%; viability, T/C [42]: 10.8%

**Q.** `Cc1nc(NC(=O)N2CCCC2C(N)=O)sc1-c1ccnc(C(C)(C)C(F)(F)F)c1` (stereo unspecified) was tested. Which viability, T/C (compound 3.16 µM) did it give?
**A.** 71.5% [middle of 8 runs]

**Q.** And the viability, T/C (compound 10 µM)?
**A.** 66% [middle of 8 runs]

**Q.** And the IC50 (compound alone, run of 06/12/2023)?
**A.** > 10 µM

**Q.** For `CC(Cn1ccc(-c2ccc(C#N)c(Cl)c2)n1)NC(=O)c1cc(C(C)O)[nH]n1` (stereo unspecified), which viability, T/C (compound 0.0316 µM) is on record?
**A.** 105% [middle of 4 runs]

**Q.** And the viability, T/C (compound 0.1 µM)?
**A.** 92.6% [middle of 4 runs]

**Q.** What about the viability, T/C (compound 0.316 µM) of the same compound?
**A.** 111% [middle of 4 runs]

**Q.** What about the viability, T/C (compound 1 µM) of the same compound?
**A.** 104% [middle of 4 runs]

**Q.** And the viability, T/C (compound 3.16 µM)?
**A.** 107% [middle of 4 runs]

**Q.** What about the viability, T/C (compound 10 µM) of the same compound?
**A.** 89.4% [middle of 4 runs]

**Q.** What about the IC50 (curve of compound) of the same compound?
**A.** > 10 µM

**Q.** How did the IC50 [3] turn out when `CC1(C)CCC(Nc2ncc(C(F)(F)F)c(-c3c[nH]c4c(P(C)(C)=O)c(C#N)ccc34)n2)CN1` (stereo unspecified) + CC(Nc1ncnc2nc[nH]c12)c1cc2cccc(Cl)c2c(=O)n1-c1ccccc1 was run?
**A.** 4.48 µM

**Q.** And the IC50 [4]?
**A.** 2.34 µM

**Q.** And the IC50 [5]?
**A.** 4.17 µM

**Q.** And the IC50 [6]?
**A.** 3.12 µM

**Q.** And the IC50 (curve of first compound, second compound 3.16 µM)?
**A.** 3.03 µM

**Q.** What about the IC50 (curve of first compound, second compound 10 µM) of the same compound?
**A.** 3 µM

**Q.** And the viability, T/C [19]?
**A.** 101%

**Q.** What about the viability, T/C [20] of the same compound?
**A.** 94.6%

**Q.** What about the viability, T/C [21] of the same compound?
**A.** 82.8%

**Q.** What about the viability, T/C [22] of the same compound?
**A.** 69%

**Q.** And the viability, T/C [23]?
**A.** 70.1%

**Q.** And the viability, T/C [24]?
**A.** 25.9%

**Q.** And the viability, T/C [25]?
**A.** 113%

**Q.** And the viability, T/C [26]?
**A.** 72.1%

**Q.** And the viability, T/C [27]?
**A.** 72%

**Q.** And the viability, T/C [28]?
**A.** 62.5%

**Q.** What about the viability, T/C [29] of the same compound?
**A.** 64.9%

**Q.** What about the viability, T/C [30] of the same compound?
**A.** 20%

**Q.** And the viability, T/C [31]?
**A.** 98%

**Q.** What about the viability, T/C [32] of the same compound?
**A.** 106%

**Q.** And the viability, T/C [33]?
**A.** 80.4%

**Q.** What about the viability, T/C [34] of the same compound?
**A.** 74%

**Q.** What about the viability, T/C [35] of the same compound?
**A.** 63.9%

**Q.** What about the viability, T/C [36] of the same compound?
**A.** 24.6%

**Q.** And the viability, T/C [37]?
**A.** 82.4%

**Q.** And the viability, T/C [38]?
**A.** 103%

**Q.** What about the viability, T/C [39] of the same compound?
**A.** 90.6%

**Q.** And the viability, T/C [40]?
**A.** 65.4%

**Q.** What about the viability, T/C [41] of the same compound?
**A.** 54.5%

**Q.** What about the viability, T/C [42] of the same compound?
**A.** 30.8%

**Q.** And the viability, T/C (second compound 3.16 µM, first compound 0.0316 µM)?
**A.** 117%

**Q.** And the viability, T/C (second compound 3.16 µM, first compound 0.1 µM)?
**A.** 96.1%

**Q.** What about the viability, T/C (second compound 3.16 µM, first compound 0.316 µM) of the same compound?
**A.** 86%

**Q.** What about the viability, T/C (second compound 3.16 µM, first compound 1 µM) of the same compound?
**A.** 64.1%

**Q.** And the viability, T/C (second compound 3.16 µM, first compound 3.16 µM)?
**A.** 60.8%

**Q.** And the viability, T/C (second compound 3.16 µM, first compound 10 µM)?
**A.** 21.8%

**Q.** What about the viability, T/C (second compound 10 µM, first compound 0.0316 µM) of the same compound?
**A.** 84.6%

**Q.** And the viability, T/C (second compound 10 µM, first compound 0.1 µM)?
**A.** 69.1%

**Q.** And the viability, T/C (second compound 10 µM, first compound 0.316 µM)?
**A.** 84.2%

**Q.** What about the viability, T/C (second compound 10 µM, first compound 1 µM) of the same compound?
**A.** 66.3%

**Q.** And the viability, T/C (second compound 10 µM, first compound 3.16 µM)?
**A.** 49.6%

**Q.** And the viability, T/C (second compound 10 µM, first compound 10 µM)?
**A.** 14.2%
